Test results reported in the supplement of paper PMC10307832.

Columns and labels:
Test in all cases: relative viability (nuclei count vs DMSO), 5 days (fraction); higher = more cells survive
[1] = tested on: A-427
Procedure, shortened: (§1)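 Lung cancer cell lines, seeded in 1536-well plates, were treated the following day by pin tool with a single drug or with five library-drug doses (not always all listed) in √10 steps on top of a fixed anchor-drug dose. Cells were fixed and nuclei stained in one step after 5 days, and nuclei were counted. Relative viability is the nuclei count for treated wells divided by that for vehicle wells, reported as medians of duplicate plates.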

[2] = tested on: ABC-1
Procedure, shortened: as §1

[3] = tested on: COR-L23
Procedure, shortened: as §1

[4] = tested on: EMC-BAC-2
Procedure, shortened: as §1

[5] = tested on: HARA
Procedure, shortened: as §1

[6] = tested on: HOP-62
Procedure, shortened: as §1

[7] = tested on: LK-2
Procedure, shortened: as §1

[8] = tested on: LU99A
Procedure, shortened: as §1

[9] = tested on: LXF-289
Procedure, shortened: as §1

[10] = tested on: NCI-H1792
Procedure, shortened: as §1

[11] = tested on: NCI-H1793
Procedure, shortened: as §1

[12] = tested on: NCI-H1944
Procedure, shortened: as §1

[13] = tested on: NCI-H1993
Procedure, shortened: as §1

[14] = tested on: NCI-H2009
Procedure, shortened: as §1

[15] = tested on: NCI-H2170
Procedure, shortened: as §1

[16] = tested on: NCI-H2228
Procedure, shortened: as §1

[17] = tested on: NCI-H3122
Procedure, shortened: as §1

[18] = tested on: NCI-H596
Procedure, shortened: as §1

[19] = tested on: NCI-H727
Procedure, shortened: as §1

[20] = tested on: PC-3 [JPC-3]
Procedure, shortened: as §1

[21] = tested on: SK-LU-1
Procedure, shortened: as §1

[22] = tested on: SK-MES-1
Procedure, shortened: as §1

[23] = tested on: SW 1573
Procedure, shortened: as §1

[24] = tested on: SW 900
Procedure, shortened: as §1

`Clc1ccc(Nc2nnc(Cc3ccncc3)c3ccccc23)cc1` [Vatalanib] + O=C(c1cc(Cc2n[nH]c(=O)c3ccccc23)ccc1F)N1CCN(C(=O)C2CC2)CC1 [Olaparib] (partner 8 µM) showed a relative viability ([1]; first compound 0.04 µM) of 0.664, a relative viability ([1]; first compound 0.1265 µM) of 0.729 and a relative viability ([1]; first compound 0.4 µM) of 0.768. For the same compound, the relative viability ([1]; first compound 4 µM) was 0.666, the relative viability ([2]; first compound 0.04 µM) was 0.642 and the relative viability ([2]; first compound 0.1265 µM) was 0.689. It also gave a relative viability ([2]; first compound 0.4 µM) of 0.421, a relative viability ([2]; first compound 4 µM) of 0.869 and a relative viability ([3]; first compound 0.04 µM) of 0.363. The relative viability ([3]; first compound 0.1265 µM) was 0.356, the relative viability ([3]; first compound 0.4 µM) was 0.402 and the relative viability ([3]; first compound 1.265 µM) was 0.337. The relative viability ([3]; first compound 4 µM) was 0.345, the relative viability ([4]; first compound 0.04 µM) was 0.476 and the relative viability ([4]; first compound 0.1265 µM) was 0.476. The relative viability ([4]; first compound 0.4 µM) was 0.497, the relative viability ([4]; first compound 4 µM) was 0.492 and the relative viability ([5]; first compound 0.04 µM) was 0.713. The relative viability ([5]; first compound 0.1265 µM) was 0.725, the relative viability ([5]; first compound 0.4 µM) was 0.875 and the relative viability ([5]; first compound 1.265 µM) was 0.97. It also gave a relative viability ([5]; first compound 4 µM) of 0.823, a relative viability ([6]; first compound 0.04 µM) of 0.385 and a relative viability ([6]; first compound 0.1265 µM) of 0.389. It also gave a relative viability ([6]; first compound 0.4 µM) of 0.523, a relative viability ([6]; first compound 1.265 µM) of 0.41 and a relative viability ([6]; first compound 4 µM) of 0.419. For the same compound, the relative viability ([7]; first compound 0.04 µM) was 0.723, the relative viability ([7]; first compound 0.1265 µM) was 0.72 and the relative viability ([7]; first compound 0.4 µM) was 0.792. The relative viability ([7]; first compound 1.265 µM) was 0.702, the relative viability ([7]; first compound 4 µM) was 0.816 and the relative viability ([8]; first compound 0.04 µM) was 0.252. For the same compound, the relative viability ([8]; first compound 0.1265 µM) was 0.281, the relative viability ([8]; first compound 0.4 µM) was 0.237 and the relative viability ([8]; first compound 1.265 µM) was 0.23. For the same compound, the relative viability ([8]; first compound 4 µM) was 0.309, the relative viability ([9]; first compound 0.04 µM) was 1.04 and the relative viability ([9]; first compound 0.1265 µM) was 1. It also gave a relative viability ([9]; first compound 0.4 µM) of 1.13, a relative viability ([9]; first compound 1.265 µM) of 0.975 and a relative viability ([9]; first compound 4 µM) of 1.03. The relative viability ([10]; first compound 0.04 µM) was 0.52, the relative viability ([10]; first compound 0.1265 µM) was 0.384 and the relative viability ([10]; first compound 0.4 µM) was 0.399. For the same compound, the relative viability ([10]; first compound 1.265 µM) was 0.344, the relative viability ([10]; first compound 4 µM) was 0.413 and the relative viability ([11]; first compound 0.04 µM) was 0.871. The relative viability ([11]; first compound 0.1265 µM) was 0.713, the relative viability ([11]; first compound 0.4 µM) was 1.02 and the relative viability ([11]; first compound 1.265 µM) was 0.788. For the same compound, the relative viability ([11]; first compound 4 µM) was 0.78, the relative viability ([12]; first compound 0.04 µM) was 0.408 and the relative viability ([12]; first compound 0.1265 µM) was 0.403. For the same compound, the relative viability ([12]; first compound 0.4 µM) was 0.417, the relative viability ([12]; first compound 1.265 µM) was 0.392 and the relative viability ([12]; first compound 4 µM) was 0.384. It also gave a relative viability ([13]; first compound 0.04 µM) of 0.587, a relative viability ([13]; first compound 0.1265 µM) of 1.08 and a relative viability ([13]; first compound 0.4 µM) of 0.879. The relative viability ([13]; first compound 1.265 µM) was 1.11, the relative viability ([13]; first compound 4 µM) was 1.01 and the relative viability ([14]; first compound 0.04 µM) was 0.703. It also gave a relative viability ([14]; first compound 0.1265 µM) of 0.623, a relative viability ([14]; first compound 0.4 µM) of 0.675 and a relative viability ([14]; first compound 1.265 µM) of 0.672. It also gave a relative viability ([14]; first compound 4 µM) of 0.594, a relative viability ([15]; first compound 0.04 µM) of 0.623 and a relative viability ([15]; first compound 0.1265 µM) of 0.656. It also gave a relative viability ([15]; first compound 0.4 µM) of 0.702, a relative viability ([15]; first compound 1.265 µM) of 0.512 and a relative viability ([15]; first compound 4 µM) of 0.556. It also gave a relative viability ([16]; first compound 0.04 µM) of 0.648, a relative viability ([16]; first compound 0.1265 µM) of 0.772 and a relative viability ([16]; first compound 0.4 µM) of 0.816. For the same compound, the relative viability ([16]; first compound 1.265 µM) was 0.654, the relative viability ([16]; first compound 4 µM) was 0.598 and the relative viability ([17]; first compound 0.04 µM) was 0.593. It also gave a relative viability ([17]; first compound 0.1265 µM) of 0.668, a relative viability ([17]; first compound 0.4 µM) of 0.689 and a relative viability ([17]; first compound 1.265 µM) of 0.592. It also gave a relative viability ([17]; first compound 4 µM) of 0.598, a relative viability ([18]; first compound 0.04 µM) of 0.751 and a relative viability ([18]; first compound 0.1265 µM) of 0.741. The relative viability ([18]; first compound 0.4 µM) was 0.63, the relative viability ([18]; first compound 1.265 µM) was 0.652 and the relative viability ([18]; first compound 4 µM) was 0.765. For the same compound, the relative viability ([19]; first compound 0.1265 µM) was 0.772, the relative viability ([19]; first compound 0.4 µM) was 0.761 and the relative viability ([19]; first compound 1.265 µM) was 0.818. For the same compound, the relative viability ([19]; first compound 4 µM) was 0.758, the relative viability ([20]; first compound 0.04 µM) was 1.15 and the relative viability ([20]; first compound 0.1265 µM) was 1.02. The relative viability ([20]; first compound 0.4 µM) was 0.786, the relative viability ([20]; first compound 1.265 µM) was 1.04 and the relative viability ([20]; first compound 4 µM) was 1.1. It also gave a relative viability ([21]; first compound 0.04 µM) of 0.438, a relative viability ([21]; first compound 0.1265 µM) of 0.449 and a relative viability ([21]; first compound 0.4 µM) of 0.52. It also gave a relative viability ([21]; first compound 1.265 µM) of 0.467, a relative viability ([21]; first compound 4 µM) of 0.365 and a relative viability ([22]; first compound 0.04 µM) of 0.608. For the same compound, the relative viability ([22]; first compound 0.1265 µM) was 0.71, the relative viability ([22]; first compound 0.4 µM) was 0.821 and the relative viability ([22]; first compound 1.265 µM) was 0.61. It also gave a relative viability ([22]; first compound 4 µM) of 0.627, a relative viability ([23]; first compound 0.04 µM) of 0.466 and a relative viability ([23]; first compound 0.1265 µM) of 0.521. It also gave a relative viability ([23]; first compound 0.4 µM) of 0.506, a relative viability ([23]; first compound 1.265 µM) of 0.55 and a relative viability ([23]; first compound 4 µM) of 0.355. It also gave a relative viability ([24]; first compound 0.04 µM) of 0.759, a relative viability ([24]; first compound 0.1265 µM) of 0.674 and a relative viability ([24]; first compound 0.4 µM) of 0.997. For the same compound, the relative viability ([24]; first compound 1.265 µM) was 0.853 and the relative viability ([24]; first compound 4 µM) was 0.93.
